Read-outs that look alike come from different tables or passages of the source.
Tests used:
M1 muscarinic receptor = target: T1, M1 muscarinic receptor (Homo sapiens, UniProt P11229); assay: Functional mobilization of intracellular calcium (FLIPR, Fluo-3), M1-CHO cells; format: cell-based; settings: for Emax: read-out: M1 Efficacy
T1 construct: expressed in transfected cells; host or cells: CHO cells (M1-CHO, under zeocin and G418 selection)
T1 sequence (P11229 1-460): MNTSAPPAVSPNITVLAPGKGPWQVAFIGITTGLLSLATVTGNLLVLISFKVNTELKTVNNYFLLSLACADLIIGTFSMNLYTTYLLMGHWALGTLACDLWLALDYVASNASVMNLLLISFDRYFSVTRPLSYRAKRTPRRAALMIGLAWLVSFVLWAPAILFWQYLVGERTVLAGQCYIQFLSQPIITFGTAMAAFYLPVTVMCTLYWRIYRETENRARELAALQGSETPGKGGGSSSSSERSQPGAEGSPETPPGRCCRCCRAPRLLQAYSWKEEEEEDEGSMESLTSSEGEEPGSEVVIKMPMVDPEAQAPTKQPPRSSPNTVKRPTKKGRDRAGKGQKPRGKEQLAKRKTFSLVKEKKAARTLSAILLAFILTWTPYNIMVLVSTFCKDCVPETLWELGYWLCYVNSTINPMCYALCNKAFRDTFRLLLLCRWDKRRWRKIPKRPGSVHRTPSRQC
Outline: (§1)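 CHO lines stably carrying the muscarinic subtype, dye-loaded with Fluo-3 at 37° C for 60-90 min, receive test compound in 0.5% DMSO. Agonist effects are read directly; antagonist effects against carbachol at EC80 after 15 min pre-incubation.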

M4 muscarinic receptor = target: T2, M4 muscarinic receptor (Homo sapiens, UniProt P08173); assay: Functional mobilization of intracellular calcium (FLIPR, Fluo-3), M4-CHO cells; format: cell-based; settings: for Emax: read-out: M4 Efficacy
T2 construct: expressed in transfected cells; host or cells: CHO cells (M4-CHO, under puromycin, zeocin and blasticidin selection)
T2 sequence (P08173 1-479): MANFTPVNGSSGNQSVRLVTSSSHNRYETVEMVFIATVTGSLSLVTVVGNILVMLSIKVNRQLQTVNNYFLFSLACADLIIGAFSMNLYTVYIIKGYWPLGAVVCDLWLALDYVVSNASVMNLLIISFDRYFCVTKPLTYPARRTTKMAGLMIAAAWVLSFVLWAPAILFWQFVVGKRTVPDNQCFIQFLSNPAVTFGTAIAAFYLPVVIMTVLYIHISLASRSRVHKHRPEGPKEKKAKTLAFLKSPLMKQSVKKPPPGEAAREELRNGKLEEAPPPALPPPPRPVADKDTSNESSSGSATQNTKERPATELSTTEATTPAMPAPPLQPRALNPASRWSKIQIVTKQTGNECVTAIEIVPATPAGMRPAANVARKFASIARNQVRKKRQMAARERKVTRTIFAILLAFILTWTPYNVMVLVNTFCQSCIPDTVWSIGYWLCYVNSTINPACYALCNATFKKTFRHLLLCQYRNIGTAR
Outline: as §1

[1] = compound nos. 1-454, 100% efficacy is the maximum response obtained with the Carbachol control
[2] = compound nos. 455-509, 100% efficacy is the maximum response obtained with the Carbachol control

SMILES	M1 Activity (M1 muscarinic receptor; compound nos. 1-454)	M1 Efficacy (M1 muscarinic receptor; [1])	M4 Activity (M4 muscarinic receptor; compound nos. 1-454)	M4 Efficacy (M4 muscarinic receptor; [1])	Emax (M1 muscarinic receptor; [1])	Emax (M4 muscarinic receptor; [1])	Emax (M1 muscarinic receptor; [2])	M1 Activity (M1 muscarinic receptor; compounds 455-509)	Emax (M4 muscarinic receptor; [2])	M4 Activity (M4 muscarinic receptor; compounds 455-509)
CN(C)C(=O)N1CC2(CCN(CC3CCN(c4cnccn4)C3)CC2)c2cc(F)ccc21 (centres unmarked) [compound 449]	+++ (activity was measured to be less than or equal to 0.7 μM)	++ (efficacy was calculated to be between 85% and 65%)	+++ (activity was measured to be less than or equal to 0.1 μM)	++ (efficacy was calculated to be between 70% and 55%)	–	–	–	–	–	–
CN(C)C(=O)N1CC2(CCN(CC3CCN(c4nccs4)C3)CC2)c2cc(F)ccc21 (centres unmarked) [compound 450]	++ (activity was measured to be between 0.7 μM and 3.0 μM)	–	+++ (activity was measured to be less than or equal to 0.1 μM)	–	65 to 85%	55 to 70%	–	–	–	–
CN(C)C(=O)N1CC2(CCN(CC3CCN(c4nccs4)C3)CC2)c2cc(F)ccc21 (centres unmarked) [compound 451]	++ (activity was measured to be between 0.7 μM and 3.0 μM)	–	+++ (activity was measured to be less than or equal to 0.1 μM)	–	–	–	–	–	–	–
CN(C)C(=O)N1CC2(CCN(C3CCN(c4ccccn4)CC3)CC2)c2cc(F)ccc21 [compound 452]	++ (activity was measured to be between 0.7 μM and 3.0 μM)	–	+++ (activity was measured to be less than or equal to 0.1 μM)	–	65 to 85%	55 to 70%	–	–	–	–
CN(C)C(=O)N1CC2(CCN(C3CCN(c4cccnc4)CC3)CC2)c2cc(F)ccc21 [compound 453]	+++ (activity was measured to be less than or equal to 0.7 μM)	–	+++ (activity was measured to be less than or equal to 0.1 μM)	–	65 to 85%	55 to 70%	–	–	–	–
CCc1nsc(N2CCC(N3CCC4(CCN(C(=O)N(C)C)c5ccccc54)CC3)CC2)n1 [compound 455]	–	–	–	–	–	–	> 100%	+++ (activity was measured to be less than or equal to 2.0 μM)	25 to 100%	++ (activity was measured to be between 2.0 μM and 5.0 μM)
CC(=O)N1CCC2(CCN(C3CCN(c4cnc5ccccc5n4)CC3)CC2)c2ccccc21 [compound 456]	–	–	–	–	–	–	> 100%	++ (activity was measured to be between 2.0 μM and 5.0 μM)	25 to 100%	++ (activity was measured to be between 2.0 μM and 5.0 μM)
CN(C)C(=O)N1CCC2(CCN(C3CCN(c4cnccn4)CC3)CC2)c2ccccc21 [compound 457]	–	–	–	–	–	–	> 100%	+++ (activity was measured to be less than or equal to 2.0 μM)	25 to 100%	++ (activity was measured to be between 2.0 μM and 5.0 μM)
Cc1nsc(N2CCC(N3CCC4(CC3)CN(C(=O)N(C)C)c3ccccc34)CC2)n1 [compound 458]	–	–	–	–	–	–	> 100%	+++ (activity was measured to be less than or equal to 2.0 μM)	> 100%	++ (activity was measured to be between 2.0 μM and 5.0 μM)
CCCc1cnc(N2CCC(N3CCC4(CC3)CN(C(=O)N(C)C)c3ccccc34)CC2)cn1 [compound 459]	–	–	–	–	–	–	> 100%	++ (activity was measured to be between 2.0 μM and 5.0 μM)	25 to 100%	++ (activity was measured to be between 2.0 μM and 5.0 μM)
CN(C)C(=O)N1CC2(CCN(C3CCN(c4cnc5ccccc5n4)CC3)CC2)c2cc(F)ccc21 [compound 460]	–	–	–	–	–	–	> 100%	+++ (activity was measured to be less than or equal to 2.0 μM)	25 to 100%	++ (activity was measured to be between 2.0 μM and 5.0 μM)
Cc1ncc(N2CCC(N3CCC4(CCN(C(=O)N(C)C)c5ccccc54)CC3)CC2)nc1C [compound 461]	–	–	–	–	–	–	> 100%	++ (activity was measured to be between 2.0 μM and 5.0 μM)	25 to 100%	++ (activity was measured to be between 2.0 μM and 5.0 μM)
Cc1ccc(N2CCC(N3CCC4(CC3)CN(C(=O)N(C)C)c3ccc(F)cc34)CC2)nn1 [compound 462]	–	–	–	–	–	–	25 to 100%	+ (activity was measured to be greater than or equal to 5.0 μM)	< 25%	++ (activity was measured to be between 2.0 μM and 5.0 μM)
CC(=O)N1CCC2(CCN(C3CCN(c4cnccn4)CC3)CC2)c2ccccc21 [compound 463]	–	–	–	–	–	–	> 100%	+++ (activity was measured to be less than or equal to 2.0 μM)	25 to 100%	++ (activity was measured to be between 2.0 μM and 5.0 μM)
CN(C)C(=O)N1CC2(CCN(C3CCN(c4cnccn4)CC3)CC2)c2ccccc21 [compound 464]	–	–	–	–	–	–	> 100%	+++ (activity was measured to be less than or equal to 2.0 μM)	> 100%	++ (activity was measured to be between 2.0 μM and 5.0 μM)
CN(C)C(=O)N1CC2(CCN(C3(C)CCN(c4cnccn4)CC3)CC2)c2ccccc21 [compound 465]	–	–	–	–	–	–	> 100%	++ (activity was measured to be between 2.0 μM and 5.0 μM)	25 to 100%	++ (activity was measured to be between 2.0 μM and 5.0 μM)
CCc1cnc(N2CCC(N3CCC4(CC3)CN(C(=O)N(C)C)c3ccccc34)CC2)cn1 [compound 466]	–	–	–	–	–	–	> 100%	++ (activity was measured to be between 2.0 μM and 5.0 μM)	25 to 100%	++ (activity was measured to be between 2.0 μM and 5.0 μM)
CN(C)C(=O)N1CC2(CCN(C3CCN(c4cnc(-c5ccncc5)cn4)CC3)CC2)c2ccccc21 [compound 467]	–	–	–	–	–	–	> 100%	+++ (activity was measured to be less than or equal to 2.0 μM)	25 to 100%	+ (activity was measured to be greater than or equal to 5.0 μM)
Cc1cnc(N2CCC(N3CCC4(CC3)CN(C(=O)N(C)C)c3ccccc34)CC2)cn1 [compound 468]	–	–	–	–	–	–	> 100%	+ (activity was measured to be greater than or equal to 5.0 μM)	25 to 100%	++ (activity was measured to be between 2.0 μM and 5.0 μM)
CN(C)C(=O)N1CC2(CCN(C3CCN(c4cncc(Cl)n4)CC3)CC2)c2ccccc21 [compound 469]	–	–	–	–	–	–	> 100%	+++ (activity was measured to be less than or equal to 2.0 μM)	25 to 100%	++ (activity was measured to be between 2.0 μM and 5.0 μM)
CC(=O)N1CC2(CCN(C3CCN(c4cncc(C)n4)CC3)CC2)c2ccccc21 [compound 470]	–	–	–	–	–	–	> 100%	+++ (activity was measured to be less than or equal to 2.0 μM)	25 to 100%	++ (activity was measured to be between 2.0 μM and 5.0 μM)
CC(=O)N1CC2(CCN(C3CCN(c4cnc(C)c(C)n4)CC3)CC2)c2ccccc21 [compound 471]	–	–	–	–	–	–	> 100%	++ (activity was measured to be between 2.0 μM and 5.0 μM)	25 to 100%	++ (activity was measured to be between 2.0 μM and 5.0 μM)
Cc1ncc(N2CCC(N3CCC4(CC3)CN(C(=O)N(C)C)c3ccc(F)cc34)CC2)nc1C [compound 472]	–	–	–	–	–	–	> 100%	+++ (activity was measured to be less than or equal to 2.0 μM)	25 to 100%	++ (activity was measured to be between 2.0 μM and 5.0 μM)
CCc1nsc(N2C3CCC2CC(N2CCC4(CCN(C(=O)N(C)C)c5ccccc54)CC2)C3)n1 (centres unmarked) [compound 473]	–	–	–	–	–	–	> 100%	+++ (activity was measured to be less than or equal to 2.0 μM)	25 to 100%	++ (activity was measured to be between 2.0 μM and 5.0 μM)
Cc1nsc(N2CCC(N3CCC4(CCN(C(=O)N(C)C)c5ccccc54)CC3)CC2)n1 [compound 474]	–	–	–	–	–	–	> 100%	+++ (activity was measured to be less than or equal to 2.0 μM)	25 to 100%	++ (activity was measured to be between 2.0 μM and 5.0 μM)
